Test results published in publication PMC8190884 (ACS Omega, 2021).
Marks after values point to notes of the source that are not given here.

How the values were obtained:
[1] = tested on: HIV RT; test: Steady-state incorporation of 3′-O-CH3 dTTP by HIV RT; assay type: biochemical, HIV-1; settings: 100 μM 3′-O-methyl dTTP; for kobs ± standard deviation (steady-state): 20 nM primer–template, 20 nM RT, 30 min
[2] = tested on: HIV RT; test: Primer extension inhibition assay on a 100-nt DNA template; assay type: biochemical, HIV-1; settings: 5 μM dNTPs, 3 μM analogue, 0.5 or 6 mM Mg2+, 30 min
[3] = molecular target: T1, HIV reverse transcriptase (RT) (Human immunodeficiency virus type 1 group M subtype B, UniProt P04585); test: Pre-steady-state observed incorporation rate constant; assay type: biochemical, HIV-1; settings: 5 μM nucleotide; for kobs ± standard deviation: 37 °C
[4] = molecular target: T1, HIV reverse transcriptase (RT); test: Pre-steady-state determination of KD and kpol; assay type: biochemical, HIV-1; settings: for kpol (maximum incorporation rate) / Kd: curve fit ± standard error; for Kd: Kd (equilibrium dissociation constant)
[5] = molecular target: HIV RT; settings: 6 mM Mg2+, different template; ref manuscript in preparation; cited from earlier work
[6] = tested on: HIV; settings: cited from earlier work

Structure (SMILES): CO[C@H]1C[C@H](n2cc(C)c(=O)[nH]c2=O)O[C@@H]1COP(=O)(O)OP(=O)(O)OP(=O)(O)O [3′-O-methyl dTTP]
- 6/0.5 mM Mg2+ with the same nucleotide (steady-state rates) [1]: 5.4
- kobs ± standard deviation (steady-state) ([1]; 0.5 mM Mg2+): 3.3 × 10^–5± 0.6 × 10^–5 ^c nM/min
- kobs ± standard deviation (steady-state) ([1]; 6 mM Mg2+): 1.8 × 10^–4± 0.2 × 10^–4 ^c nM/min
- inhibition of primer extension (terminated vs fully extended products), in words [2]: no inhibition

Structure (SMILES): Cc1cn([C@H]2C[C@H](N)[C@@H](COP(=O)(O)OP(=O)(O)OP(=O)(O)O)O2)c(=O)[nH]c1=O [3′-amino dTTP]
- 6/0.5 mM Mg2+ with the same nucleotide (ratio of kobs; fold slower in 0.5 mM) [3]: 3.8
- fold slower kobs compared to dTTP ([3]; 0.5 mM (low) Mg2+): > 10 fold
- relative rate vs dTTP same [Mg2+] ([3]; 0.5 mM Mg2+): 0.094
- kobs ± standard deviation ([3]; 0.5 mM free Mg2+): 0.81 ± 0.13 s^–1
- relative rate vs dTTP same [Mg2+] ([3]; 6 mM Mg2+): 0.22
- kobs ± standard deviation ([3]; 6 mM Mg2+): 3.1 ± 0.1 s^–1

Structure (SMILES): Cc1cn([C@H]2C[C@H](F)[C@@H](COP(=O)(O)OP(=O)(O)OP(=O)(O)O)O2)c(=O)[nH]c1=O [3′-fluoro dTTP]
- 6/0.5 mM Mg2+ with the same nucleotide (ratio of kobs; fold slower in 0.5 mM) [3]: 2.8
- fold slower kobs compared to dTTP ([3]; 0.5 mM (low) Mg2+): > 10 fold
- relative rate vs dTTP same [Mg2+] ([3]; 0.5 mM Mg2+): 0.063
- kobs ± standard deviation ([3]; 0.5 mM free Mg2+): 0.54 ± 0.13 s^–1
- relative rate vs dTTP same [Mg2+] ([3]; 6 mM Mg2+): 0.11
- kobs ± standard deviation ([3]; 6 mM Mg2+): 1.5 ± 0.1 s^–1

Structure (SMILES): CC[C@]1(COP(=O)(O)OP(=O)(O)OP(=O)(O)O)O[C@@H](n2cc(C)c(=O)[nH]c2=O)C[C@@H]1O [4′-C-ethyl dTTP]
- relative rate vs dTTP same [Mg2+] ([3]; 0.5 mM Mg2+): 0.15
- kobs ± standard deviation ([3]; 0.5 mM free Mg2+): 1.3 ± 0.1 s^–1
- incorporation rate, fold faster than D-carba dTTP ([3]; 6 mM Mg2+): about 3 fold
- relative rate vs dTTP same [Mg2+] ([3]; 6 mM Mg2+): 0.28
- kobs ± standard deviation ([3]; 6 mM Mg2+): 3.9 ± 0.4 s^–1
- inhibition of primer extension (terminated vs fully extended products), in words [2]: less effective

Structure (SMILES): Cc1cn([C@H]2C[C@H](O)[C@@](C)(COP(=O)(O)OP(=O)(O)OP(=O)(O)O)O2)c(=O)[nH]c1=O [4′-C-methyl dTTP]
- 6/0.5 mM Mg2+ with the same nucleotide (ratio of kobs; fold slower in 0.5 mM) [3]: 0.88
- relative rate vs dTTP same [Mg2+] ([3]; 0.5 mM Mg2+): 0.52
- kobs ± standard deviation ([3]; 0.5 mM free Mg2+): 4.5 ± 1.4 s^–1
- incorporation rate, fold faster than D-carba dTTP ([3]; 6 mM Mg2+): about 3 fold
- relative rate vs dTTP same [Mg2+] ([3]; 6 mM Mg2+): 0.28
- kobs ± standard deviation ([3]; 6 mM Mg2+): 3.9 ± 2.8 s^–1

Structure (SMILES): Cc1cn([C@H]2C[C@H](N=[N+]=[N-])[C@@H](CO[P@](=O)(O)O[P@](=O)(O)OP(=O)(O)O)O2)c(=O)[nH]c1=O [AZTTP]
- 6/0.5 mM Mg2+ with the same nucleotide (ratio of kobs; fold slower in 0.5 mM) [3]: 4.5
- relative rate vs dTTP same [Mg2+] ([3]; 0.5 mM Mg2+): 0.23
- kobs ± standard deviation ([3]; 0.5 mM free Mg2+): 2.0 ± 0.5 s^–1
- fold slower kobs compared to dTTP ([3]; 6 mM (high) Mg2+): about 2 fold
- relative rate vs dTTP same [Mg2+] ([3]; 6 mM Mg2+): 0.63
- kobs ± standard deviation ([3]; 6 mM Mg2+): 8.9 ± 1.9 s^–1
- efficiency decline (fold decline in kpol/Kd relative to dTTP at the same Mg2+) ([4]; 0.5 mM Mg2+): 7.2 fold
- kpol/Kd (catalytic efficiency) ([4]; 0.5 mM Mg2+): 0.6
- kpol (maximum incorporation rate) ([4]; 0.5 mM Mg2+): 3.3 ± 0.3 s^–1
- efficiency decline (fold decline in kpol/Kd relative to dTTP at the same Mg2+) ([4]; 6 mM Mg2+): 1.5 fold
- kpol (maximum incorporation rate) ([4]; 6 mM Mg2+): 17.0 ± 0.6 s^–1
- Kd ([4]; 0.5 mM Mg2+): 5.5 ± 1.7 µM

Structure (SMILES): Cc1cn([C@@H]2C[C@H](COP(=O)(O)OP(=O)(O)OP(=O)(O)O)[C@@H](O)C2)c(=O)[nH]c1=O [D-carba dTTP]
- 6/0.5 mM Mg2+ with the same nucleotide (ratio of kobs; fold slower in 0.5 mM) [3]: not strongly affected
- relative rate vs dTTP same [Mg2+] ([3]; 0.5 mM Mg2+): 0.13
- kobs ± standard deviation ([3]; 0.5 mM free Mg2+): 1.1 ± 0.5 s^–1
- relative rate vs dTTP same [Mg2+] ([3]; 6 mM Mg2+): 0.092
- kobs ± standard deviation ([3]; 6 mM Mg2+): 1.3 ± 0.1 s^–1
- KD, fold higher than 4′-C-ethyl and 4′-C-methyl dTTP [5]: 4–8 fold
- inhibition of primer extension (terminated vs fully extended products), in words [2]: by far the weakest inhibitor
- inhibition of primer extension (terminated vs fully extended products), in words ([2]; listed as D-carba): weak inhibitor under both conditions

Structure (SMILES): Cc1cn([C@H]2C=C[C@@H](COP(=O)(O)OP(=O)(O)OP(=O)(O)O)O2)c(=O)[nH]c1=O [d4TTP, 2′,3′-didehydro-2′,3′-dideoxythymidine triphosphate]
- 6/0.5 mM Mg2+ with the same nucleotide (ratio of kobs; fold slower in 0.5 mM) [3]: 4.6
- relative rate vs dTTP same [Mg2+] ([3]; 0.5 mM Mg2+): 0.21
- kobs ± standard deviation ([3]; 0.5 mM free Mg2+): 1.8 ± 0.7 s^–1
- fold slower kobs compared to dTTP ([3]; 6 mM (high) Mg2+): about 2 fold
- relative rate vs dTTP same [Mg2+] ([3]; 6 mM Mg2+): 0.59
- kobs ± standard deviation ([3]; 6 mM Mg2+): 8.3 ± 0.8 s^–1
- efficiency decline (fold decline in kpol/Kd relative to dTTP at the same Mg2+) ([4]; 0.5 mM Mg2+): 6.7 fold
- kpol/Kd (catalytic efficiency) ([4]; 0.5 mM Mg2+): 0.64
- kpol (maximum incorporation rate) ([4]; 0.5 mM Mg2+): 4.9 ± 0.5 s^–1
- efficiency decline (fold decline in kpol/Kd relative to dTTP at the same Mg2+) ([4]; 6 mM Mg2+): 3.2 fold
- kpol/Kd (catalytic efficiency) ([4]; 6 mM Mg2+): 1.9
- kpol (maximum incorporation rate) ([4]; 6 mM Mg2+): 22.3 ± 1.7 s^–1

Structure (SMILES): Cc1cn([C@H]2C[C@H](O)[C@@H](CO[P@](=O)(O)O[P@@](=O)(O)OP(=O)(O)O)O2)c(=O)[nH]c1=O [dTTP, Deoxythymidine triphosphate]
- 6/0.5 mM Mg2+ with the same nucleotide (ratio of kobs; fold slower in 0.5 mM) [3]: 1.6
- relative rate vs dTTP same [Mg2+] ([3]; 0.5 mM Mg2+): 1
- kobs ± standard deviation ([3]; 0.5 mM free Mg2+): 8.6 ± 1.3 s^–1
- relative rate vs dTTP same [Mg2+] ([3]; 6 mM Mg2+): 1
- kobs ± standard deviation ([3]; 6 mM Mg2+): 14.1 ± 1.2 s^–1
- efficiency decline (fold decline in kpol/Kd relative to dTTP at the same Mg2+) ([4]; 0.5 mM Mg2+): 1 fold
- kpol/Kd (catalytic efficiency) ([4]; 0.5 mM Mg2+): 4.3
- kpol (maximum incorporation rate) ([4]; 0.5 mM Mg2+): 14.3 ± 0.8 s^–1
- efficiency decline (fold decline in kpol/Kd relative to dTTP at the same Mg2+) ([4]; 6 mM Mg2+): 1 fold
- kpol/Kd (catalytic efficiency) ([4]; 6 mM Mg2+): 6.0
- kpol (maximum incorporation rate) ([4]; 6 mM Mg2+): 25.0 ± 1.3 s^–1
- Kd ([4]; 0.5 mM Mg2+): 3.3 ± 0.6 µM
- Kd ([4]; 6 mM Mg2+): 4.2 ± 0.7 µM

Structure (SMILES): Nc1ncnc2c1ncn2[C@H]1CC[C@@H](CO[P@@](=O)(O)O[P@](=O)(O)OP(=O)(O)O)O1 [ddATP]
- selectivity index, fold lower than that for AZT [6]: about 4.5 fold

Structure (SMILES): Cc1cn([C@H]2CC[C@@H](COP(=O)(O)OP(=O)(O)OP(=O)(O)O)O2)c(=O)[nH]c1=O [ddTTP, dideoxy TTP]
- 6/0.5 mM Mg2+ with the same nucleotide (ratio of kobs; fold slower in 0.5 mM) [3]: 5.1
- relative rate vs dTTP same [Mg2+] ([3]; 0.5 mM Mg2+): 0.16
- kobs ± standard deviation ([3]; 0.5 mM free Mg2+): 1.4 ± 0.7 s^–1
- fold slower kobs compared to dTTP ([3]; 6 mM (high) Mg2+): about 2 fold
- relative rate vs dTTP same [Mg2+] ([3]; 6 mM Mg2+): 0.51
- kobs ± standard deviation ([3]; 6 mM Mg2+): 7.2 ± 1.0 s^–1
